IC50 and inhibition data for 39 compounds are collected here from patent US20210170033A1, “NOVEL CONJUGATES OF A PHARMACEUTICAL AGENT AND A MOIETY CAPABLE OF BINDING TO A GLUCOSE SENSING PROTEIN” (SANOFI, priority 2017, published 2021).

Where only a bound is given, the exact number is not on record here.

As a reminder, the IC50 is the concentration that gives 50% inhibition.

This test relates to A2780 cells. As to the kind of experiment: Deoxy-glucose uptake assay in A2780 cells (14C 2-deoxy-D-glucose transport). To be noted: Homo sapiens; for IC50: 20 min, inhibition of 14C 2-deoxy-D-glucose transport into A2780 cells, 20 min compound incubation, read-out: IC50. It counts as cell-based. As for the experimental part: 1. Deoxy-Glucose Uptake Assay in A2780 Cells:
For measurement of ^14C 2-deoxy-D-glucose transport into A2780 cells, cells were seeded in 96-well plates (Cytostar-T Plates Perkin Elmer, 70,000 cells/180 μl/well) in medium complete (RPMI1640+Glutamax (Life technologies #61870)) and grown for 48 hours. After 48 h, cells were washed once with 180 μL KRB (Krebs Ringer Bicarbonate) buffer, and stimulated in a dose dependent manner by adding 10 μL of test compound dilution 0-1.1 mM (11 times higher concentration than final) or 10 μL of 1.1 mM Cytochalasin B solution as negative control, to 90 μL KRB buffer and incubated for 20 minutes. After compound stimulation, the transport of ^14C 2-deoxy-D-glucose was started by adding of 50 μL 2-^14C[U] 2-deoxy-D-glucose solution (109.1 μM 2-deoxy-D-glucose cold and 33 μM 2-^14C[U] 2-deoxy-D-glucose 0.1 μCi/well) for 20 minutes. Transport was stopped by adding 50 μL/well 96 μM Cytochalasin B solution. Plates were measured in a 96-well Wallac Microbeta device. The cpm (counts per minute) values were used to determine the % inhibition values for the test compounds within each experiment. In a first step, the mean background value generated by Cytochalasin B (a potent glucose transporter inhibitor) treated cells, was subtracted from the mean values of the treated cells. All mean values were obtained from triplicates. For %-Inhibition results, the mean value of the untreated cells (just KRB) was set as 100%. All other mean values were calculated to this relation. IC50 were obtained by regression analysis of dose response curve with 7 or 14 concentrations, respectively, for each compound.

In the case of `COc1cc(OCc2cccc(OCCCCCC(=O)O)c2)c(Cl)cc1C(=O)N[C@H]1[C@@H](OC)O[C@H](CO)[C@@H](O)[C@@H]1O` [Example 398], the IC50 turned out to be 85.9 µM. On the same count and under the same terms, with `COC(=O)[C@H](CCCCNC(=O)COCCOCC(=O)NCc1cccc(COc2cc(OC)c(C(=O)O[C@H]3[C@@H](OC)O[C@H](CO)[C@@H](O)[C@@H]3O)cc2Cl)c1)NC(=O)OC(C)(C)C` [Example 399] the figure was 20.2 µM; with `COc1cc(OCc2cccc(NC(=O)COCCOCC(=O)O)c2)c(Cl)cc1C(=O)O[C@H]1[C@@H](OC)O[C@H](CO)[C@@H](O)[C@@H]1O` [Example 400], 47.1 µM.

`COc1cc(OCc2cccc(CNC(=O)CCC(=O)NCCCCCC(=O)O)c2)c(Cl)cc1C(=O)O[C@H]1[C@@H](OC)O[C@H](CO)[C@@H](O)[C@@H]1O` [Example 405]: the IC50 came to 60.5 µM. `COc1cc(OCc2cccc(CNC(=O)CCCCCCC(=O)O)c2)c(Cl)cc1C(=O)O[C@H]1[C@@H](OC)O[C@H](CO)[C@@H](O)[C@@H]1O` [Example 408]: the IC50 was determined as 45 µM. Turning to `COC(=O)[C@H](CCCCNC(=O)CCCCCNC(=O)CCC(=O)NCc1cccc(COc2cc(OC)c(C(=O)O[C@H]3[C@@H](OC)O[C@H](CO)[C@@H](O)[C@@H]3O)cc2Cl)c1)NC(=O)OC(C)(C)C` [Example 411], the IC50 was determined as 25.9 µM. Take `COC(=O)[C@H](CCCCNC(=O)CCCCCCC(=O)Nc1cccc(COc2cc(OC)c(C(=O)O[C@H]3[C@@H](OC)O[C@H](CO)[C@@H](O)[C@@H]3O)cc2Cl)c1)NC(=O)OC(C)(C)C` [Example 414]: the IC50 was 0.7 µM. Consider `COc1cc(OCc2nc3ccccc3n2CCCCCCCCCCCCCCCC(=O)O)c(Cl)cc1C(=O)N[C@H]1[C@@H](OC)O[C@H](CO)[C@@H](O)[C@@H]1O` [Example 421], for which the IC50 came to 15.1 µM. Consider `COc1cc(OCc2cccc(CNC(=O)CCCCCCCCC(=O)OC(C)(C)C)c2)c(Cl)cc1C(=O)N[C@H]1[C@@H](OC)O[C@H](CO)[C@@H](O)[C@@H]1O` [Example 427], for which the IC50 amounted to 60.5 µM. On the same count and under the same terms, with `COc1cc(OCc2cccc(NC(=O)CCC(=O)OC(C)(C)C)c2)c(Cl)cc1C(=O)N[C@H]1[C@@H](OC)O[C@H](CO)[C@@H](O)[C@@H]1O` [Example 428] the figure was 4.4 µM; with `COc1cc(OCc2cccc(NC(=O)CCCC(=O)OC(C)(C)C)c2)c(Cl)cc1C(=O)N[C@H]1[C@@H](OC)O[C@H](CO)[C@@H](O)[C@@H]1O` [Example 429], 2.9 µM; with `COc1cc(OCc2cccc(NC(=O)CCCCCCCCC(=O)OC(C)(C)C)c2)c(Cl)cc1C(=O)N[C@H]1[C@@H](OC)O[C@H](CO)[C@@H](O)[C@@H]1O` [Example 431], 6.1 µM. With `COC(=O)[C@H](CCCCNC(=O)CCC(=O)NCc1cccc(COc2cc(OC)c(C(=O)N[C@H]3[C@@H](OC)O[C@H](CO)[C@@H](O)[C@@H]3O)cc2Cl)c1)NC(=O)OC(C)(C)C` [Example 435], the IC50 came to 45.3 µM. For `COC(=O)[C@H](CCCCNC(=O)CCCC(=O)NCc1cccc(COc2cc(OC)c(C(=O)N[C@H]3[C@@H](OC)O[C@H](CO)[C@@H](O)[C@@H]3O)cc2Cl)c1)NC(=O)OC(C)(C)C` [Example 436], the IC50 stood at 34.2 µM. Still for that read-out and setting: in the case of `COc1c(C(=O)N[C@H]2[C@H](OC)O[C@H](CO)[C@@H](O)[C@@H]2O)cc(Cl)c(OCc2cccc(CNC(=O)OC(C)(C)C)c2)c1Cl` [Example 447] it was 30.6 µM.

In the case of `CO[C@H]1O[C@H](CO)[C@@H](O)[C@H](O)[C@H]1NC(=O)c1cc(Cl)c(OCc2cccc(CNC(=O)CCC(=O)OC(C)(C)C)c2)c(Cl)c1C` [Example 449], the IC50 came out at 18.5 µM. Consider `CO[C@H]1O[C@H](CO)[C@@H](O)[C@H](O)[C@H]1NC(=O)c1cc(Cl)c(OCc2cccc(CNC(=O)CCCC(=O)OC(C)(C)C)c2)c(Cl)c1C` [Example 450], for which the IC50 is 25.8 µM.

For `CO[C@H]1O[C@H](CO)[C@@H](O)[C@H](O)[C@H]1NC(=O)c1cc(Cl)c(OCc2cccc(NC(=O)CCCCCCC(=O)OC(C)(C)C)c2)c(Cl)c1C` [Example 454], the IC50 is 25.6 µM. In the case of `CO[C@H]1O[C@H](CO)[C@@H](O)[C@H](O)[C@H]1OC(=O)c1cc(Cl)c(OCc2cccc(CNC(=O)CCCCCCCCC(=O)OC(C)(C)C)c2)c(Cl)c1C` [Example 456], the IC50 was 25 µM. Take `COc1cc(OCc2cccc(CNC(=O)CCCCCCC(=O)NCCCCCC(=O)OC(C)(C)C)c2)c(Cl)cc1C(=O)N[C@H]1[C@@H](OC)O[C@H](CO)[C@@H](O)[C@@H]1O` [Example 457]: the IC50 amounted to 31.7 µM. Still for that read-out and setting: with `COC(=O)[C@H](CCCCNC(=O)CCCC(=O)NCc1cccc(COc2c(Cl)cc(C(=O)N[C@H]3[C@@H](OC)O[C@H](CO)[C@@H](O)[C@@H]3O)c(C)c2Cl)c1)NC(=O)OC(C)(C)C` [Example 460] the figure was 84.6 µM.

As for `COC(=O)[C@H](CCCCNC(=O)CCCC(=O)Nc1cccc(COc2c(Cl)cc(C(=O)N[C@H]3[C@@H](OC)O[C@H](CO)[C@@H](O)[C@@H]3O)c(C)c2Cl)c1)NC(=O)OC(C)(C)C` [Example 463], the IC50 came to 25.1 µM. On to `COC(=O)[C@H](CCCCNC(=O)CCCCCCC(=O)Nc1cccc(COc2c(Cl)cc(C(=O)N[C@H]3[C@@H](OC)O[C@H](CO)[C@@H](O)[C@@H]3O)c(C)c2Cl)c1)NC(=O)OC(C)(C)C` [Example 464], for which the IC50 was 44 µM. Same read-out and setting: with `COC(=O)[C@H](CCCCNC(=O)CCCCCCCCC(=O)Nc1cccc(COc2c(Cl)cc(C(=O)N[C@H]3[C@@H](OC)O[C@H](CO)[C@@H](O)[C@@H]3O)c(C)c2Cl)c1)NC(=O)OC(C)(C)C` [Example 465] the figure was 49.9 µM; with `COc1cc(OCc2cccc(NC(=O)CCCCCCC(=O)NCCCCCC(=O)OC(C)(C)C)c2)c(Cl)cc1C(=O)N[C@H]1[C@@H](OC)O[C@H](CO)[C@@H](O)[C@@H]1O` [Example 466], 3.4 µM; with `COc1cc(OCc2cccc(NC(=O)CCCCCCCCC(=O)NCCCCCC(=O)OC(C)(C)C)c2)c(Cl)cc1C(=O)N[C@H]1[C@@H](OC)O[C@H](CO)[C@@H](O)[C@@H]1O` [Example 467], 27.9 µM.

Regarding `COC(=O)[C@H](CCCCNC(=O)CCCCCNC(=O)CCCCCCC(=O)NCc1cccc(COc2cc(OC)c(C(=O)N[C@H]3[C@@H](OC)O[C@H](CO)[C@@H](O)[C@@H]3O)cc2Cl)c1)NC(=O)OC(C)(C)C` [Example 468], the IC50 turned out to be 27.8 µM. Regarding `COC(=O)CCCCCCCn1c(COc2cc(OC)c(C(=O)N[C@H]3[C@@H](OC)O[C@H](CO)[C@@H](O)[C@@H]3O)cc2Cl)nc2ccccc21` [Example 470], the IC50 amounted to 61.4 µM. With `COc1cc(OCc2coc(-c3ccc(C(F)(F)F)cc3)n2)c(Cl)cc1C(=O)O[C@H]1[C@@H](OC)O[C@H](CO)[C@@H](O)[C@@H]1O` [Example 473], the IC50 was less than 0.1 µM.

In the case of `COc1cc(OCc2coc(-c3ccc(Cl)cc3)n2)c(Cl)cc1C(=O)O[C@H]1[C@@H](OC)O[C@H](CO)[C@@H](O)[C@@H]1O` [Example 474], the IC50 is less than 0.1 µM. As for `COc1cc(OCc2cnc(-c3ccc(Cl)cc3)o2)c(Cl)cc1C(=O)O[C@H]1[C@@H](OC)O[C@H](CO)[C@@H](O)[C@@H]1O` [Example 475], the IC50 was less than 0.1 µM. In the case of `COc1cc(OCc2ccc(-c3csnn3)cc2)c(Cl)cc1C(=O)O[C@H]1[C@@H](OC)O[C@H](CO)[C@@H](O)[C@@H]1O` [Example 476], the IC50 is less than 0.1 µM. Turning to `COc1cc(OCc2nnc(-c3ccc(Cl)cc3)s2)c(Cl)cc1C(=O)O[C@H]1[C@@H](OC)O[C@H](CO)[C@@H](O)[C@@H]1O` [Example 477], the IC50 was determined as 3.7 µM. Take `COc1cc(OCc2sc(C)nc2C(F)(F)F)c(Cl)cc1C(=O)O[C@H]1[C@@H](OC)O[C@H](CO)[C@@H](O)[C@@H]1O` [Example 478]: the IC50 was determined as 0.24 µM.

Turning to `COc1cc(OCc2ccc(-c3nccs3)cc2)c(Cl)cc1C(=O)O[C@H]1[C@@H](OC)O[C@H](CO)[C@@H](O)[C@@H]1O` [Example 479], the IC50 is less than 0.1 µM. On the same count and under the same terms, in the case of `COc1cccc(COc2cc(OC)c(C(=O)O[C@H]3[C@@H](OC)O[C@H](CO)[C@@H](O)[C@@H]3O)cc2Cl)n1` [Example 480] it was 4.6 µM; in that of `COc1cc(OCc2nc3ccccc3n2Cc2ccccc2)c(Cl)cc1C(=O)O[C@H]1[C@@H](OC)O[C@H](CO)[C@@H](O)[C@@H]1O` [Example 481], 0.6 µM. For `COc1cc(OCc2cnc(OC)c(NCC(=O)O)c2)c(Cl)cc1C(=O)N[C@H]1[C@@H](OC)O[C@H](CO)[C@@H](O)[C@@H]1O` [Example 483], the IC50 amounted to 36 µM. As to `O=C(NC[C@@H]1O[C@H](CO)[C@@H](O)[C@H](O)[C@H]1O)c1ccc(COc2ccccc2)o1` [Example 490], the inhibition at 100 µM (inhibition of 14C 2-deoxy-D-glucose transport into A2780 cells at 100 μM, read-out: % inh. at 100 μM) was 20%.
